Assay results reported in ChEMBL document CHEMBL1201862, “PubChem BioAssay data set” (2004).
One block for each molecule: values may come before it. Activity calls are given as the source filed them.

Tests used:
[1] = molecular target: T1, Probable nicotinate-nucleotide adenylyltransferase (Staphylococcus aureus (strain N315), UniProt P65502); assay type: functional, Staphylococcus aureus subsp. aureus N315;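 as to IC50 Mean: confirmatory dose-response retesting of NadD inhibitor hits first found in an ultra-high-throughput screen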
[2] = molecular target: T1, Probable nicotinate-nucleotide adenylyltransferase; assay type: functional, Staphylococcus aureus subsp. aureus N315; details: read-out: IC50_Mean
[3] = molecular target: T2, Sentrin-specific protease 1 (Homo sapiens, UniProt Q9P0U3); test: SENP1 catalytic domain blockers, concentration series – biochemical, kinetic FRET, dose response (AID 651697); assay type: functional; details: read-out: IC50_Mean
T2 sequence (Q9P0U3 whole entry): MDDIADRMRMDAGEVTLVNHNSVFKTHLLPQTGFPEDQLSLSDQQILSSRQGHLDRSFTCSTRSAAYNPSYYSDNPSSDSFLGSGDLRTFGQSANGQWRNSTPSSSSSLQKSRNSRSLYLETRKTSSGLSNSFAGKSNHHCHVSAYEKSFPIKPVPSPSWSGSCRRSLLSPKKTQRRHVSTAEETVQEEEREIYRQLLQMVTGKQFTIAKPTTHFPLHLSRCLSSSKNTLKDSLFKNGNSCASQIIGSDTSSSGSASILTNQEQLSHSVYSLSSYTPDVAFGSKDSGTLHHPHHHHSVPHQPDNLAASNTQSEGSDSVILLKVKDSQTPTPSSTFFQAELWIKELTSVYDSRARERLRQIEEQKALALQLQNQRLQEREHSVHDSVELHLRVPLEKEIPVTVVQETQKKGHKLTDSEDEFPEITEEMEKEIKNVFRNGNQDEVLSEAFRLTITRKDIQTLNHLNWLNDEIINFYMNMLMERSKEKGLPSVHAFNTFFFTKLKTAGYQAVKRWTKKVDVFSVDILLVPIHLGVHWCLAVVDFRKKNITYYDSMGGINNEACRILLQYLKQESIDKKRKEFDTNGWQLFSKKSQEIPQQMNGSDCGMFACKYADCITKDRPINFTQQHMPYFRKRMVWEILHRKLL

[4] = molecular target: T2, Sentrin-specific protease 1; test: Dose response confirmation of small molecule inhibitors of the catalytic domain of the SUMO protease, SENP1 in a FRET assay.; assay type: functional; details: read-out: IC50_Mean
[5] = molecular target: Dual specificity tyrosine-phosphorylation-regulated kinase 1A (Rattus norvegicus, UniProt Q63470); assay type: biochemical, Homo sapiens
[6] = molecular target: T3, Low molecular weight phosphotyrosine protein phosphatase (Homo sapiens, UniProt P24666); assay type: functional; details: read-out: IC50_Mean
T3 sequence (P24666 whole entry): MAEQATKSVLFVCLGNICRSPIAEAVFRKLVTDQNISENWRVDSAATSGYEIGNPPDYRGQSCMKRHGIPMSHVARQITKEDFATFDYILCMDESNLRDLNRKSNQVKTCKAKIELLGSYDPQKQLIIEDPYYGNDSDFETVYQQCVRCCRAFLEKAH

[7] = molecular target: T3, Low molecular weight phosphotyrosine protein phosphatase; assay type: functional; details: read-out: IC50_Mean; remark: listed apart in the source
[8] = molecular target: T4, Tyrosine-protein phosphatase non-receptor type 22 (Homo sapiens, UniProt Q9Y2R2); test: PTPN22 enzyme inhibitors – biochemical, fluorescence, LYP catalytic domain, selectivity assay for LMPTP inhibitor project, dose response (AID 652006); assay type: functional; details: read-out: IC50_Mean
T4 sequence (Q9Y2R2 whole entry): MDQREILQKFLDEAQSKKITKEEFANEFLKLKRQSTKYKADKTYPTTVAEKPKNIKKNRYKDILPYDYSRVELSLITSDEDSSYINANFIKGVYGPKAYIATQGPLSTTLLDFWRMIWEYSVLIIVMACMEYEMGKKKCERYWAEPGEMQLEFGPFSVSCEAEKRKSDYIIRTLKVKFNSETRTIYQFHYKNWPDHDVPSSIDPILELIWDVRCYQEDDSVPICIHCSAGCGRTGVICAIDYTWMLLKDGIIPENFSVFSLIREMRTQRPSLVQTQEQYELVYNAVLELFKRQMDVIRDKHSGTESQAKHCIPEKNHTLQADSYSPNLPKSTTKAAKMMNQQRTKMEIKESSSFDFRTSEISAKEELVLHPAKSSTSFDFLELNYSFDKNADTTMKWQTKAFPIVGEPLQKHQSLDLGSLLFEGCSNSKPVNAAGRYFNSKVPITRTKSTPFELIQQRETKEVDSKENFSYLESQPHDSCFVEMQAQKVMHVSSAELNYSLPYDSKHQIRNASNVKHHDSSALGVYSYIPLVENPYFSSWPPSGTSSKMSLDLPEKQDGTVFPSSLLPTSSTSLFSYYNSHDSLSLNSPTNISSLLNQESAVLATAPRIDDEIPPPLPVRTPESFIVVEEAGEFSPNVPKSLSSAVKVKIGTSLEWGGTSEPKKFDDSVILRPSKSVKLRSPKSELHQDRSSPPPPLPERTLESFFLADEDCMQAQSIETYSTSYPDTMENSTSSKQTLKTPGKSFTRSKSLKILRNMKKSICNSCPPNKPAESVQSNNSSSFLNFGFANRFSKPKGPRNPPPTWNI

[9] = molecular target: Nuclear receptor subfamily 5 group A member 2 (Homo sapiens, UniProt O00482); assay type: functional, cell-based;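 also: HEK293T cells transfected with LRH-1 and a StAR promoter luciferase reporter; potency for inhibitors that lower LRH-1 driven reporter light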
Chain of Nuclear receptor subfamily 5 group A member 2 (O00482 whole entry): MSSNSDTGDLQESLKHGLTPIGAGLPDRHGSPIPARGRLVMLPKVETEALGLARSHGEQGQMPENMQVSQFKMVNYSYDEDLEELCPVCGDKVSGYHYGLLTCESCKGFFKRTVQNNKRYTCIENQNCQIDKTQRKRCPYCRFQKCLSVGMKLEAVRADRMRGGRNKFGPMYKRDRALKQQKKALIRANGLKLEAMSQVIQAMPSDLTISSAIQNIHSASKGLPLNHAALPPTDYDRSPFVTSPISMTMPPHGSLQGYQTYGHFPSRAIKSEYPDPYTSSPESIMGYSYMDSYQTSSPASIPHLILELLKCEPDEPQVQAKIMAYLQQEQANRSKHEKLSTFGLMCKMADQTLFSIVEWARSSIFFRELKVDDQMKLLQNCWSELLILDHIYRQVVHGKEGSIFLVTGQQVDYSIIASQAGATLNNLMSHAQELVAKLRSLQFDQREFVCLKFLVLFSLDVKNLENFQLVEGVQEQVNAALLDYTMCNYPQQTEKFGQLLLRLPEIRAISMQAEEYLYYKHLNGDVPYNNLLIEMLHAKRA

[10] = molecular target: Steroidogenic factor 1 (Homo sapiens, UniProt Q13285); test: Counterscreen for inverse agonists of the liver receptor homolog-1 (LRH-1; NR5A2): Luminescence-based cell-based high throughput dose response assay to identify inverse agonists of the Steroidogenic Factor 1 Nuclear Receptor (SF1; NR5A1).; assay type: functional
Chain of Steroidogenic factor 1 (Q13285 whole entry): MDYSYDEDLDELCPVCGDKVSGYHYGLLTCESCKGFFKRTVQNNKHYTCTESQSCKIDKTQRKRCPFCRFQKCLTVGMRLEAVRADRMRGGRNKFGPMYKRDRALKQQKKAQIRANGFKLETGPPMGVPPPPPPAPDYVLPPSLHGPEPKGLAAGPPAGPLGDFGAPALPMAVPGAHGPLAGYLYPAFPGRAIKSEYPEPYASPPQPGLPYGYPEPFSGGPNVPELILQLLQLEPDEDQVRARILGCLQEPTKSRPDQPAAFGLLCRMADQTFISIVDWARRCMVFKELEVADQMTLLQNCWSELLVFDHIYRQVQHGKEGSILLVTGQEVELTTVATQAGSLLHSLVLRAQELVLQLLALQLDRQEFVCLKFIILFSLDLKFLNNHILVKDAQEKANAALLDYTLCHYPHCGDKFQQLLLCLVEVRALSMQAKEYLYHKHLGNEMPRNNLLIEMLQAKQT

[11] = nonselective StAR promoter luciferase inhibitors – cell-based, luminescence, luciferase reporter, counter-screen for LRH-1 inverse agonist project, dose response (AID 651969); assay type: functional
[12] = mouse fibroblast viability loss – cell-based, cherry-pick samples, set 2, cytotoxicity control for T. cruzi growth inhibitor project, dose response (AID 651817); assay type: functional; details: NIH3T3
[13] = molecular target: Paired box protein Pax-8 (Homo sapiens, UniProt Q06710); test: PAX8 transcriptional activity inhibition in RMG-I – RMG-I cells, luciferase, cherry-pick, dose response (AID 687027); assay type: functional, cell-based;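 also: luciferase reporter driven by Pax8 target thyroperoxidase promoter measured by SteadyGlo luminescence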
Chain of Paired box protein Pax-8 (Q06710 whole entry): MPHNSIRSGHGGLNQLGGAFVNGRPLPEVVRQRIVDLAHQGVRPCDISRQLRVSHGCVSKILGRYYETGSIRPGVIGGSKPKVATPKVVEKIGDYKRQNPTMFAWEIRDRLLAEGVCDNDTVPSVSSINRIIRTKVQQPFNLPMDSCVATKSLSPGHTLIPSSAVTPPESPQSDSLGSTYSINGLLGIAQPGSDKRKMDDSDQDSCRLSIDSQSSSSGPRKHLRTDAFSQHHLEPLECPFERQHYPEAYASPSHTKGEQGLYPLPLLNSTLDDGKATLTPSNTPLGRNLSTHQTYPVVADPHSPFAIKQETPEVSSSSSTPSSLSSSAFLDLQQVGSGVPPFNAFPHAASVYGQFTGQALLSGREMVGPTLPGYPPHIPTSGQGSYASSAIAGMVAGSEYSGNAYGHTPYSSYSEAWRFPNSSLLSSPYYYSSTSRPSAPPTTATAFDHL

[14] = molecular target: T5, Estrogen receptor (Homo sapiens, UniProt P03372);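 also: potency for inhibiting coactivator peptide recruitment to the receptor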
T5 sequence (P03372 whole entry): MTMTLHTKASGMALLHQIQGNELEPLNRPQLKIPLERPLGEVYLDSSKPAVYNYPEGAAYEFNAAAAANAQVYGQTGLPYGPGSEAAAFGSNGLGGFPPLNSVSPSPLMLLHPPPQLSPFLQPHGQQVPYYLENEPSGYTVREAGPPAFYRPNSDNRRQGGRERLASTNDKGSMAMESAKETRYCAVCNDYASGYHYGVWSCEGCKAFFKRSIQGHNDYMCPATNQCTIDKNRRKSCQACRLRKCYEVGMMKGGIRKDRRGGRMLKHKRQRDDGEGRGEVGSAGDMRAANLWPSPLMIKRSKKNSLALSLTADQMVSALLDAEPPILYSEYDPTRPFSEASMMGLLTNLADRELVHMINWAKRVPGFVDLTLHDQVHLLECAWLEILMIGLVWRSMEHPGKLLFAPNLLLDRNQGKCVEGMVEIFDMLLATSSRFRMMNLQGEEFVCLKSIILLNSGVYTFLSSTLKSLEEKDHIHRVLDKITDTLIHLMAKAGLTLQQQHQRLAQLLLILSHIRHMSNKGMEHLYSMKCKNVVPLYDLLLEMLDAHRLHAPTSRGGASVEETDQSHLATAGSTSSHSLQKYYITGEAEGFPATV

[15] = molecular target: Photoreceptor-specific nuclear receptor (Homo sapiens, UniProt Q9Y5X4); assay type: functional, cell-based;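 also: CHO-S cells with Gal4-NCOR and VP16-NR2E3 two-hybrid luciferase reporter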
Chain of Photoreceptor-specific nuclear receptor (Q9Y5X4 whole entry, the tested form may be a part): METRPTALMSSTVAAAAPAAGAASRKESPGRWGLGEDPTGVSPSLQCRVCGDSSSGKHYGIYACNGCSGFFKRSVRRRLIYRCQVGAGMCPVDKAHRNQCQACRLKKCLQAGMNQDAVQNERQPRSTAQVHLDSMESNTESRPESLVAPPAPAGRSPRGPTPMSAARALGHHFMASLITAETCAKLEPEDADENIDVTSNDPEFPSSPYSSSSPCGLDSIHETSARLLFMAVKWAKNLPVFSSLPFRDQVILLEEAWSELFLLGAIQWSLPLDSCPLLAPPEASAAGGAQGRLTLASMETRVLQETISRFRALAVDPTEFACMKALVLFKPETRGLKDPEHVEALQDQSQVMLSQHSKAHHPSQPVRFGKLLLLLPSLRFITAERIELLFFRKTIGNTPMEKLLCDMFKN

[16] = molecular target: ADP-ribosylation factor GTPase-activating protein 1 (Rattus norvegicus, UniProt Q62848); test: Fluorescence polarization-based biochemical high throughput dose response screening assay to identify inhibitors of ADP-ribosylation factor GTPase activating protein 1 (ARFGAP1).; assay type: functional
Chain of ADP-ribosylation factor GTPase-activating protein 1 (Q62848 whole entry, the tested form may be a part): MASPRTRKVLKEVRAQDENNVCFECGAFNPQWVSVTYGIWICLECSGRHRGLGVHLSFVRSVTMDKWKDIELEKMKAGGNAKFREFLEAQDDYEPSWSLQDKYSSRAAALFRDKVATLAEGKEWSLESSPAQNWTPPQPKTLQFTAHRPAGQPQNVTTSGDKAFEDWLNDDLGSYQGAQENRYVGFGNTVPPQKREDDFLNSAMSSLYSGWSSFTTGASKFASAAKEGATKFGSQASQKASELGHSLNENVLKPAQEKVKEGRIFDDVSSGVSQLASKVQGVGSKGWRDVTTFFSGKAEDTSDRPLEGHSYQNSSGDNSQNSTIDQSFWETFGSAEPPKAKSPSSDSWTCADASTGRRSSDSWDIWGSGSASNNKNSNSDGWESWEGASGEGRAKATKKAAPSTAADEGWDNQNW

[17] = molecular target: Arf-GAP with SH3 domain, ANK repeat and PH domain-containing protein 1 (Homo sapiens, UniProt Q9ULH1); assay type: functional;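 also: biochemical fluorescence polarization dose–response screen measuring inhibition of ASAP1; ASAP1 GAP domain stimulating GTP hydrolysis by truncated human ARF1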
Chain of Arf-GAP with SH3 domain, ANK repeat and PH domain-containing protein 1 (Q9ULH1 whole entry, the tested form may be a part): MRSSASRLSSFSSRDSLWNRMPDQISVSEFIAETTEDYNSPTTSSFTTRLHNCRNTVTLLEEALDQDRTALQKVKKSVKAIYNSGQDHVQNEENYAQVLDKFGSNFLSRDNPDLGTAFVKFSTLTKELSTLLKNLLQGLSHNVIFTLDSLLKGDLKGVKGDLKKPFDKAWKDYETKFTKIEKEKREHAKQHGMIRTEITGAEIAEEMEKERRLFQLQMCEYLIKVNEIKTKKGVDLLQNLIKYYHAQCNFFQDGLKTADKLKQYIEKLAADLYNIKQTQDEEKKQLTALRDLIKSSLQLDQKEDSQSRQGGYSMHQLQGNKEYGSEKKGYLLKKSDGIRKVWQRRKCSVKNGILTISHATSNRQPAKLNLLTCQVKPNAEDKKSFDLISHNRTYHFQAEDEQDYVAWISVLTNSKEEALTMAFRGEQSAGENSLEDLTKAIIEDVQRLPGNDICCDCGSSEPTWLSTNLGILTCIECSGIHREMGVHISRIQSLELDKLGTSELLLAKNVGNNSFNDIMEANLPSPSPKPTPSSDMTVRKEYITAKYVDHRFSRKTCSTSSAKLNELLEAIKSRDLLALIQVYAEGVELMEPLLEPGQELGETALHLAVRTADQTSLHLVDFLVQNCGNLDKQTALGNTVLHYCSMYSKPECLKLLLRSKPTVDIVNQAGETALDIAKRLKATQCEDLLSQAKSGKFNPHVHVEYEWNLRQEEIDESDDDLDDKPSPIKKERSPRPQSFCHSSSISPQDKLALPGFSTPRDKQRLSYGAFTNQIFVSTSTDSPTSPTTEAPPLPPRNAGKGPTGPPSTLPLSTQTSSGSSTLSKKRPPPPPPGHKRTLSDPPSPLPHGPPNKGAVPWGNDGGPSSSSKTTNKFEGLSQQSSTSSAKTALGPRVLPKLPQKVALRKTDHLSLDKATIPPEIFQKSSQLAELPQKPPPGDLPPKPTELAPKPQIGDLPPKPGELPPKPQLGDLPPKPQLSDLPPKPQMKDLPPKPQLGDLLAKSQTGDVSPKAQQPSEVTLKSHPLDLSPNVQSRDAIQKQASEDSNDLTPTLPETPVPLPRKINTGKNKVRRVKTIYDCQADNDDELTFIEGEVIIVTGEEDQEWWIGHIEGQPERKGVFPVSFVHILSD

[18] = acridine orange displacement from DNA – biochemical, fluorescence polarization, cherry-pick, artefact control for RAD54 inhibitor project, dose response (AID 651673); assay type: functional
[19] = molecular target: T6, DNA repair and recombination protein RAD54-like (Homo sapiens, UniProt Q92698); test: RAD54 Holliday junction migration blockers – biochemical, fluorescence, cherry-picked samples, dose series, confirmation (AID 651657); assay type: functional
T6 sequence (Q92698 whole entry): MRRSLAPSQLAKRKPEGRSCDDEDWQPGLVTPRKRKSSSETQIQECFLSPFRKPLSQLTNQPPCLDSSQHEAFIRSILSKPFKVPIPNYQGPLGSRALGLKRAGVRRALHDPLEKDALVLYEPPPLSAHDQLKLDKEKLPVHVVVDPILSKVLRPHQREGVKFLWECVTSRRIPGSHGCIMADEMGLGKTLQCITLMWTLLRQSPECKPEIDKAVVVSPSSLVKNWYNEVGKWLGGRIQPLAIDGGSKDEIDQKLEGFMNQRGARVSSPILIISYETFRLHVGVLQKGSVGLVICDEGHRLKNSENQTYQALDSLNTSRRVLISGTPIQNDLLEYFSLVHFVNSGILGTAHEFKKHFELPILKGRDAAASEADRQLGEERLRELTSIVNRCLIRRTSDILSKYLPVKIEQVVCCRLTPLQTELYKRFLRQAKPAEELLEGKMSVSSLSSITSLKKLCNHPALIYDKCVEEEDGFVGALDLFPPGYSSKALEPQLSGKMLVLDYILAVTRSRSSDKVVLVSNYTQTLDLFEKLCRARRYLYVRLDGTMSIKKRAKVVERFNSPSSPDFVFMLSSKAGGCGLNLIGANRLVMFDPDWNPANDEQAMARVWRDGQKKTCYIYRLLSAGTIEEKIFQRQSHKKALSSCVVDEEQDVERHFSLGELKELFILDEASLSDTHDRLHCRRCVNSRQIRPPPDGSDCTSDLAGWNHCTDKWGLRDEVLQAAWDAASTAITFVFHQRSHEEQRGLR

IC50 [1]: 12.7 µM (active)
IC50 [2]: 36.1 µM (active)
SMILES: CC(C)(C)n1nc2c(c1NC(=O)c1ccc(S(=O)(=O)N3CCCC3)cc1)CSC2

IC50 [3]: 5.42 µM (active)
IC50 [4]: 4.9 µM (active)
SMILES: CCN(CC(=O)Nc1ccc(NC(C)=O)cc1)C(=O)CSc1ncnc2sc(C)c(C)c12

AC50 [5]: 6.73 µM (active)
IC50 [6]: 22.7 µM (inactive)
IC50 [7]: 6.78 µM (active)
IC50 [8]: 80 µM (inactive)
SMILES: Cc1ccccc1Nc1cc(C)c2c(O)cccc2n1

SMILES: COc1ccc(CCNC(=O)COC(=O)c2cccn2C)cc1
IC50 [9]: 35.9 µM (inactive)
IC50 [10]: 7.32 µM (active)
IC50 [11]: 35.9 µM (inactive)

SMILES: Cc1ccc(S(=O)(=O)Nc2ccc3c(c2)CC(=O)N([C@H](C)CO)C[C@H](C)[C@@H](CN(C)Cc2ccc(Cl)c(Cl)c2)O3)cc1
AC50 [12]: 13 µM (active)
AC50 [13]: 13.3 µM (active)

IC50 [14]: 20.8 µM (active)
IC50 [15]: 0.185 µM (active)
IC50 [16]: 37.6 µM (inactive)
IC50 [17]: 23.6 µM (inactive)
SMILES: O=C(CSc1nnnn1-c1ccccc1)Nc1nsc(-c2ccc(Cl)cc2)n1

IC50 [4]: 46.3 µM (inactive)
AC50 [19]: 6.59 µM (active)
SMILES: CCN(CC)CCNc1cccc2sc3ccccc3c(=O)c12
AC50 [18]: 51.4 µM (active)
